Measured values as given in publication PMC12122562, “Phase 1 studies of the indenoisoquinolines LMP776 and LMP744 in patients with solid tumors and lymphomas” (Cancer Chemotherapy and Pharmacology, 2025).
Like-named read-outs stand apart in the source and are kept apart here.

Assays:
Format in all cases: in vivo, human
[1] = system: advanced, refractory solid tumors or lymphomas; test: Phase 1 trial of LMP744: tumor response (RECIST v1.1), cycles completed
Procedure: (§1) Tumor responses were evaluated by serial CT scans according to RECIST v1.1 criteria. CT scans were performed every other cycle during the first year, then every 3 cycles after the first year. Toxicities associated with LMP776 were evaluated according to criteria specified in CTCAE version 4.0; toxicities associated with LMP744 were evaluated according to the criteria specified in CTCAE version 4.03 (on or before March 31, 2018) or version 5.0 (on or after April 1, 2018). Criteria for all versions can be found at https://ctep.cancer.gov/protocolDevelopment/electronic_applications/ctc.htm. Any patient who received a dose of either agent was considered eligible for toxicity evaluation.

[2] = Plasma pharmacokinetics of LMP744, non-compartmental; settings: for half-life / AUC(0-inf) / AUC(0-t) / Cmax / Tmax: human, plasma, intravenous
Procedure: Blood was collected during cycle 1 in the LMP744 study on C1D1 at the end of infusion (EOI), then again at 0.25, 0.5, 1, 2, 4, and 6 h after EOI. Blood was also collected prior to infusion and at EOI on days 2–5 during cycle 1, then again at 1 week (168 h) after C1D1 EOI. Samples were collected in EDTA tubes with 2 mL of blood per sample. Samples were centrifuged and plasma was stored at − 70 °C. Samples were analyzed using a validated LC–MS or LC–MS/MS method for each IIQ as previously described. Plasma-time data were analyzed using WinNonlin (Pharsight, Mountain View, CA). AUC values were calculated by non-compartmental analysis and end-of-infusion concentrations were measured on days 1 and 5 of cycle 1. Sample collection and analysis of LMP776 pharmacokinetics were performed as previously described.

[3] = system: advanced, refractory solid tumors or lymphomas; test: Phase 1 trial of LMP776: tumor response (RECIST v1.1), cycles completed
Procedure: as §1

COc1cc2c3c(n(CCCNCCO)c(=O)c2cc1OC)-c1cc2c(cc1C3=O)OCO2 [LMP744]
Overall response rate ([1]; 35 patients): 3%
Patients with a partial response (one confirmed) ([1]; in vivo): Two
Patients with stable disease for ≥ 3 cycles ([1]; in vivo): 12
Cycles of treatment completed with SD ([1]; patient 10, low-grade appendiceal mucinous neoplasm): 31 cycles
Cl ([2]; DL1, 6 mg/m2, n=1): 42.3 L/h/m2
Vss ([2]; DL1, 6 mg/m2, n=1): 1033.0 L/m2
Cl ([2]; DL2, 12 mg/m2, n=1): 74.0 L/h/m2
Vss ([2]; DL2, 12 mg/m2, n=1): 1369.0 L/m2
Cl ([2]; DL3, 24 mg/m2, n=3): 77.9 (11.2) L/h/m2
Vss ([2]; DL3, 24 mg/m2, n=3): 1312.7 L/m2
Cl ([2]; DL4, 48 mg/m2, n=1): 72.7 L/h/m2
Vss ([2]; DL4, 48 mg/m2, n=1): 828.0 L/m2
Cl ([2]; DL5, 96 mg/m2, n=1): 51.7 L/h/m2
Vss ([2]; DL5, 96 mg/m2, n=1): 836.6 L/m2
Cl ([2]; DL6 (MTD), 190 mg/m2, n=16): 59.1 (26.6) L/h/m2
Vss ([2]; DL6 (MTD), 190 mg/m2, n=16): 845.0 L/m2
Cl ([2]; DL7, 260 mg/m2, n=10): 73.8 (35.4) L/h/m2
Vss ([2]; DL7, 260 mg/m2, n=10): 867.8 L/m2
half-life ([2]; 6 mg/m2, DL1, 6 mg/m2, n=1, read-out: t1/2 (converted)): 23.4 h
half-life ([2]; 12 mg/m2, DL2, 12 mg/m2, n=1, read-out: t1/2 (converted)): 19.1 h
half-life ([2]; 24 mg/m2, DL3, 24 mg/m2, n=3, read-out: t1/2 (converted)): 14 h
half-life ([2]; 48 mg/m2, DL4, 48 mg/m2, n=1, read-out: t1/2 (converted)): 15.5 h
half-life ([2]; 96 mg/m2, DL5, 96 mg/m2, n=1, read-out: t1/2 (converted)): 16.2 h
half-life ([2]; 190 mg/m2, DL6 (MTD), 190 mg/m2, n=16, read-out: t1/2 (mean half-life) (converted)): 13.6 h
half-life ([2]; 190 mg/m2, MTD (DL6, 190 mg/m^2, n = 16), read-out: Half-life, range): 7.2 to 23.4 h
half-life ([2]; 190 mg/m^2, patient 8, Hodgkin lymphoma, read-out: Longest drug half-life measured in this study (converted)): 23.4 h
half-life ([2]; 260 mg/m2, DL7, 260 mg/m2, n=10, read-out: t1/2 (converted)): 10.9 h
AUC(0-inf) ([2]; DL1, 6 mg/m2, n=1): 142 ng·h/mL
AUC(0-t) ([2]; DL1, 6 mg/m2, n=1): 91.7 ng·h/mL
Cmax ([2]; DL1, 6 mg/m2, n=1): 48.4 ng/mL
Tmax ([2]; DL1, 6 mg/m2, n=1): 1 h
AUC(0-inf) ([2]; DL2, 12 mg/m2, n=1): 162 ng·h/mL
AUC(0-t) ([2]; DL2, 12 mg/m2, n=1): 117 ng·h/mL
Cmax ([2]; DL2, 12 mg/m2, n=1): 69.6 ng/mL
Tmax ([2]; DL2, 12 mg/m2, n=1): 1 h
AUC(0-inf) ([2]; DL3, 24 mg/m2, n=3): 313 ng·h/mL
AUC(0-t) ([2]; DL3, 24 mg/m2, n=3): 234 ng·h/mL
Cmax ([2]; DL3, 24 mg/m2, n=3): 78.1 ng/mL
Tmax ([2]; DL3, 24 mg/m2, n=3): 1.6 h
AUC(0-inf) ([2]; DL4, 48 mg/m2, n=1): 800 ng·h/mL
AUC(0-t) ([2]; DL4, 48 mg/m2, n=1): 632 ng·h/mL
Cmax ([2]; DL4, 48 mg/m2, n=1): 446 ng/mL
Tmax ([2]; DL4, 48 mg/m2, n=1): 1 h
AUC(0-inf) ([2]; DL5, 96 mg/m2, n=1): 1860 ng·h/mL
AUC(0-t) ([2]; DL5, 96 mg/m2, n=1): 1390 ng·h/mL
Cmax ([2]; DL5, 96 mg/m2, n=1): 433 ng/mL
Tmax ([2]; DL5, 96 mg/m2, n=1): 1 h
AUC(0-inf) ([2]; DL6 (MTD), 190 mg/m2, n=16): 4650 ng·h/mL
AUC(0-t) ([2]; DL6 (MTD), 190 mg/m2, n=16): 3770 ng·h/mL
Cmax ([2]; DL6 (MTD), 190 mg/m2, n=16): 1570 ng/mL
Tmax ([2]; DL6 (MTD), 190 mg/m2, n=16): 1 h
AUC(0-inf) ([2]; DL7, 260 mg/m2, n=10): 4100 ng·h/mL
AUC(0-t) ([2]; DL7, 260 mg/m2, n=10): 3580 ng·h/mL
Cmax ([2]; DL7, 260 mg/m2, n=10): 1500 ng/mL
Tmax ([2]; DL7, 260 mg/m2, n=10): 1 h
Dependence of half-life on dose ([2]; in vivo): did not vary with dose level
Systemic exposure (AUC) versus dose level ([2]; in vivo): increased linearly with dose level

COc1cc2c3c(n(CCCn4ccnc4)c(=O)c2cc1OC)-c1cc2c(cc1C3=O)OCO2 [LMP776]
Objective responses ([3]; RECIST v1.1, n = 34): no objective responses were measured
Best response ([3]; in vivo): stable disease
Longest duration of SD ([3]; patient 45, pancreatic cancer): 9 cycles
